Data from patent US11135310B2, “Gold porphyrin-PEG conjugates and methods of use” (The University of Hong Kong, priority 2015, dated 2021).

Experiments:
[1] = tested on: MIHA; test: In vitro cytotoxicity, MTT assay; conditions: MIHA; MTT assay, 72 h incubation
[2] = tested on: HCT116; test: In vitro cytotoxicity, MTT assay; type: cell-based, human; conditions: for IC50: HCT116, MTT assay, 72 h incubation; for Toxicity toward cancer cells compared to that toward MIHA cells / Toxicity toward cancer cells compared to that toward NCM460 cells: HCT-116; for Toxicity toward cancer cells compared to that toward MIHA cells: IC50 of MIHA cells/IC50 of cancer cells; for Toxicity toward cancer cells compared to that toward NCM460 cells: IC50 of NCM460 cells/IC50 of cancer cells
[3] = tested on: A2780adr cells; test: Cellular uptake by ICP-MS; type: cell-based, human; conditions: 2 μM, 37° C.
Description: Based on the results of previous study on cellular uptake of nanostructures [Davis, M. E. et al. Nat. Rev. Drug Discov. 2008, 7, 771] and the strong dependence of the uptake mechanism of 1 on temperature, K^+ concentration and hypertonic condition (FIG. 3d), nanostructures of 1 likely entered live cells by clathrin-mediated endocytosis.
To rationalize the lower toxicity of NC1 toward MIHA cells, cellular uptake of NC1 by MIHA and cancer cells has been investigated by ICP-MS (FIGS. 3b and 4). The gold contents in A2780 and A2780adr cells were 2.6- and 2.0-fold higher than that in MIHA cells, respectively, after incubation with NC1 for 2 h. […] On the other hand, co-incubation of MIHA cells with 1 and DOX should not lead to significant changes in cellular uptake rate of DOX. […] For NC1, it was less toxic toward MIHA cells as reflected by the apparent “strong antagonism” (Table 3), which should be owing to the decrease of DOX cellular uptake by the encapsulation from the nanostructures of 1, rather than real antagonism from DOX and 1.

[4] = tested on: HeLa; test: In vitro cytotoxicity, MTT assay; type: cell-based, human; conditions: for Toxicity toward cancer cells compared to that toward MIHA cells: IC50 of non-tumorigenic MIHA cells/IC50 of cancer cells; for Toxicity toward cancer cells compared to that toward NCM460 cells: IC50 of non-tumorigenic NCM460 cells/IC50 of cancer cells; for IC50: MTT assay, 72 h incubation, read-out: IC50
Description: Therefore, it was anticipated that a not too high loading of DOX into nanostructures of 1 could be used for anti-cancer purposes in order to maintain low toxicity toward non-tumorigenic cells. Together with the higher encapsulation efficiency of DOX, NC1 was selected for investigations of the in vitro cytotoxicity. […] The in vitro cytotoxicity of NC1 was also compared to that of the mixture of nanostructures of 1 and DOX. […] The observed cytotoxicity was further evaluated by the combination index (CI), which can describe the effect of drug combination. […] It is shown that dose and effect are interchangeable via defined parameters. This general equation for the single drug effect has been extended to the multiple drug effect equation for n drugs. These equations provide the theoretical basis for the combination index (CI)-isobologram equation that allows quantitative determination of drug interactions, where CI<1, =1, and >1 indicate synergism, additive effect, and antagonism, respectively. [Chou, et al. Pharmacol. Rev. 2006, 58, 621] […] The synergistic effect can originate from different molecular targets and/or mechanism of action of DOX from that of gold(III) porphyrin complexes. […] These different modes of action would allow supra-additive effect on killing HeLa cells by the co-delivery.

[5] = tested on: NCM460; test: In vitro cytotoxicity, MTT assay; type: cell-based, human; conditions: 72 h incubation
[6] = tested on: NCI-H460; test: In vitro cytotoxicity, MTT assay; type: cell-based, human; conditions: for Toxicity toward cancer cells compared to that toward MIHA cells: IC50 of MIHA cells/IC50 of cancer cells; for Toxicity toward cancer cells compared to that toward NCM460 cells: IC50 of NCM460 cells/IC50 of cancer cells; for IC50: MTT assay, 72 h incubation
[7] = Systemic toxicity in mice bearing HCT116 xenografts (body weight, histopathology, blood biochemistry); type: in vivo
Description: FIGS. 9A-9H show blood biochemistry analysis of ALT, AST, GLB, BUN, CREA, UA, LDH and CK, respectively, in the mice (n=8) at 24 days post-treatment.

[8] = tested on: A2780adr; conditions: for Toxicity toward cancer cells compared to that toward MIHA cells / Toxicity toward cancer cells compared to that toward NCM460 cells / IC50: A2780adr; for Toxicity toward cancer cells compared to that toward MIHA cells: IC50 of MIHA cells/IC50 of cancer cells; for Toxicity toward cancer cells compared to that toward NCM460 cells: IC50 of NCM460 cells/IC50 of cancer cells; for IC50: MTT assay, 72 h incubation; for Resistance found in A2780adr: Determined by IC50 of A2780adr cells/IC50 of A2780 cells
[9] = tested on: HCT116 xenografts; type: in vivo; conditions: 4 mg/kg intravenous, 24 days, n=8, p<0.01
Description: FIGS. 8B and 8C show changes in tumor volume and body weight, respectively, in mice (n=8) after treatment with different doses of 1 or A1. The control group received an equal volume of PBS only. ** denotes p<0.01 vs. control.
Significant pulmonary hemorrhage in the alveoli and a thickening of alveolar walls were found. Also, apoptotic hepatocytes and swollen renal epithelial cells were found, leading to subsequent shrinkage of kidney tubules. […] The lower systemic toxicity of 1 can be explained by the lower accumulation of 1 in the organs of mice treated at its effective dosage, as compared to that of A1 and Au1a (FIG. 10).

[10] = tested on: HCT116 cells; test: Hydrolysis of the gold(III) complexes in live cells, UPLC-QTOF-MS; type: in vitro ADME, human; conditions: 2 μM, 24 h, UPLC-QTOF-MS of lysates
Description: Hydrolysis of the gold(III) complexes in live cells has been studied by ultra-performance liquid chromatography coupled quadrupole-time-of-flight mass spectrometry (UPLC-QTOF-MS). Colon cancer cells, HCT116, were treated with 1 and A1 (2 μM) for 24 h, harvested and lysed by acetonitrile-water solution mixture (3:1, v/v) prior to UPLC-QTOF-MS analysis. […] In view of the fact that the peak with retention time of 6.44 min in the total-ion chromatogram of cell lysates of HCT116 treated with 1 was absence in the total-ion chromatogram of 1 in acetonitrile solution, this peak should be owing to the metabolite of 1 formed in HCT116 cells.

[11] = tested on: A2780; test: In vitro cytotoxicity, MTT assay; type: cell-based, human; conditions: for Toxicity toward cancer cells compared to that toward MIHA cells: IC50 of MIHA cells/IC50 of cancer cells; for Toxicity toward cancer cells compared to that toward NCM460 cells: IC50 of NCM460 cells/IC50 of cancer cells; for IC50: MTT assay, 72 h incubation
[12] = tested on: A2780cis; test: In vitro cytotoxicity, MTT assay; type: cell-based, human; conditions: for Toxicity toward cancer cells compared to that toward MIHA cells / Toxicity toward cancer cells compared to that toward NCM460 cells / IC50: A2780cis; for Toxicity toward cancer cells compared to that toward MIHA cells: IC50 of MIHA cells/IC50 of cancer cells; for Toxicity toward cancer cells compared to that toward NCM460 cells: IC50 of NCM460 cells/IC50 of cancer cells; for IC50: MTT assay, 72 h incubation; for Resistance found in A2780cis: Determined by IC50 of A2780cis cells/IC50 of A2780 cells
[13] = tested on: CCD-19Lu; test: In vitro cytotoxicity, MTT assay; type: cell-based; conditions: 72 h incubation
[14] = tested on: non-tumorigenic cells; test: In vitro cytotoxicity, MTT assay, non-tumorigenic cells; type: cell-based; conditions: 72 h
[15] = tested on: HCT116 cells; test: Apoptosis in co-culture cell model of HCT116 and NCM460; type: cell-based, human; conditions: 2 μM, 24 h, Caspase-3/7 Green Reagent, flow cytometry
Description: (§1) In order to differentiate the two different cell lines, NCM460 cells were pre-treated by blue-emissive CMF2HC dye prior to its co-culture with HCT116 cells. […] On the other hand, the co-culture model treated with 1 for 24 h was stained by FITC-Annexin V and propidium iodide, and imaged by fluorescence microscopy. Green and red fluorescence were primarily observed in cells without showing blue luminescence, i.e. HCT16 cells. […] The results of both fluorescence microscopy and flow cytometry support the high selectivity of 1 on killing colon cancer cells in the co-culture model of cancer and normal cells.
(§2) This co-culture model treated with 1 for 24 h had 25.04 and 5.01% of HCT116 and NCM460 cells, respectively, undergoing apoptosis as determined by Caspase-3/7 Green Reagent staining and flow cytometric analysis. This confirms the preferential induction of apoptosis by 1 of HCT116 cells over NCM460 cells in the co-culture model, regardless of the effect, if any, of the blue emissive CMF2HC dye.

[16] = tested on: NCM460 cells; test: as above; type: cell-based, human; conditions: NCM460 in co-culture, 2 μM, 24 h, Caspase-3/7 Green Reagent, flow cytometry
Description: as §1, §2

[17] = tested on: NCM460 cells; test: Induction of apoptosis, CellEvent Caspase-3/7 Green (microscopy and flow cytometry); conditions: NCM460, 2 μM, fluorescence microscopy
[18] = tested on: HCT116 cells; test: as above; type: cell-based, human; conditions: HCT116, 2 μM, fluorescence microscopy
[19] = acute toxicological study, Chem. Commun. 2011, 47, 9554; cited from earlier work
[20] = tested on: HCT116 cells; test: Apoptosis by FITC-Annexin V staining, flow cytometry; type: cell-based, human; conditions: HCT116, 2 μM, 24 h
Description: (§3) The selective induction of apoptosis of HCT116 cells over NCM460 cells by 1 was further studied using FITC-Annexin V staining. Phosphatidylserine residues, which are located on the cytoplasmic surface of the cell membrane in normal live cells, will be translocated to outer plasma membrane in apoptotic cells. […] The quantity of apoptotic cells stained by FITC-Annexin V after treatment with 1 and Au1a was investigated by flow cytometry.

[21] = tested on: NCM460 cells; test: as above; type: cell-based, human; conditions: NCM460, 2 μM, 24 h
Description: as §3

Structure (SMILES) | IC50 [1] [µM] | IC50 [2] [µM] | Toxicity toward cancer cells compared to that toward MIHA cells [2] | Toxicity toward cancer cells compared to that toward NCM460 cells [2] | Incubation time after which amount in A2780adr cells decreases [3] [h] | Toxicity toward cancer cells compared to that toward MIHA cells [4] | Toxicity toward cancer cells compared to that toward NCM460 cells [4] | IC50 [4] [µM] | IC50 [5] [µM] | Toxicity toward cancer cells compared to that toward MIHA cells [6] | Toxicity toward cancer cells compared to that toward NCM460 cells [6] | IC50 [6] [µM] | Toxicity toward cancer cells compared to that toward MIHA cells [8] | Toxicity toward cancer cells compared to that toward NCM460 cells [8] | IC50 [8] [µM] | Resistance found in A2780adr [8] | Toxicity toward cancer cells compared to that toward MIHA cells [11] | Toxicity toward cancer cells compared to that toward NCM460 cells [11] | IC50 [11] [µM] | Toxicity toward cancer cells compared to that toward MIHA cells [12] | further results
COC(=O)c1ccc(-c2c3nc(c(-c4ccccc4)c4ccc([n-]4)c(-c4ccccc4)c4nc(c(-c5ccccc5)c5ccc2[n-]5)C=C4)C=C3)cc1.[Au+3].[Cl-] [A1] | 0.7 ± 0.1 | 0.09 ± 0.01 | 7.7 | 1.4 | 0.75 | 0.9 | 0.2 | 0.8 ± 0.1 | 0.13 ± 0.01 | 7.0 | 1.3 | 0.1 ± 0.01 | 1.1 | 0.2 | 0.65 ± 0.06 | 0.31 | 3.5 | 0.7 | 0.2 ± 0.02 | 3.5 | Blood biochemistry (organ damage indicators) ([7]; 4 mg/kg, for 1: ALT, GLB, BUN and CK, p<0.05): significant damage in the lung, liver and kidney; Histopathological analysis of lung, liver, kidney, heart and spleen ([7]; after treatment (A1: 4 mg/kg)): damage in normal lung, liver and kidney tissues; Reduction of tumor volume [9]: 56%; Reduction of tumor weight [9]: 49%; Species formed by hydrolysis of ester bond in cells [10]: [Au(TPP—COOH)]^+; Toxicity toward cancer cells compared to that toward NCM460 cells [12]: 0.7; IC50 [12]: 0.2 ± 0.03 µM; Resistance found in A2780cis [12]: 1.0; IC50 [13]: 0.73 ± 0.04 µM; IC50 for non-tumorigenic cells [14]: submicromolar range
C1=Cc2nc1c(-c1ccccc1)c1ccc([n-]1)c(-c1ccccc1)c1nc(c(-c3ccccc3)c3ccc([n-]3)c2-c2ccccc2)C=C1.[Au+3].[Cl-] [Au1a, [Au(TPP)]Cl, reference compound] | 0.4 ± 0.07 | 0.09 ± 0.02 | 4.4 | 0.8 | 0.5 | 0.6 | 0.1 | 0.66 ± 0.04 | 0.07 ± 0.01 | 1.7 | 0.3 | 0.23 ± 0.01 | 0.4 | 0.06 | 1.1 ± 0.1 | 0.11 | 3.3 | 0.6 | 0.12 ± 0.02 | 3.5 | Population percentage of apoptotic cells (corrected) [15]: 54.6%; Population percentage of apoptotic cells (corrected) [16]: 29.3%; Incubation time to induction of apoptosis [17]: 20 h; Incubation time to large number of apoptotic events [17]: 32 h; Incubation time to induction of apoptosis [18]: 12 h; Incubation time to significant apoptotic events / large population of apoptotic cells [18]: 32 h; Effective dose to combat tumor growth relative to lethal dose [19]: close to the lethal dose; Toxicity toward cancer cells compared to that toward NCM460 cells [12]: 0.4; IC50 [12]: 0.18 ± 0.01 µM; Resistance found in A2780cis [12]: 0.67; IC50 [13]: 0.23 ± 0.04 µM; IC50 for non-tumorigenic cells [14]: submicromolar range; Percentage of apoptotic cells [20]: 39.6%; Percentage of apoptotic cells [21]: 39.3%
